Source: patent EP1090646A2, “Labelled d-mannoheptulose derivatives and their use for imaging of the endocrine pancreas” (UNIVERSITE LIBRE DE BRUXELLES, priority 1999, dated 2001)
Where two headings read alike, the source gives them in different places.

Experiments:
pieces of pancreas = experiment: Apparent distribution space in pieces of pancreas from control and STZ rats; conditions: for apparent distribution space in the presence of D-glucose relative to its absence: D-glucose 8.3 mM; for final distribution space relative to the initial incubation medium radioactive content: after the two successive incubations
Method: (§1) Unless otherwise mentioned, the pancreatic pieces or isolated islets were submitted after incubation, to four successive washes conducted at 4°C with a medium containing 20.0 µM cytochalasin B (Sigma, St. Louis, MO, USA).
In the next series of experiments, the possible uptake of D-[^3H]mannoheptulose was compared to that of its hexaacetate ester in pieces of pancreas from normal rats (Figure 2).
In the last set of experiments in this series, pieces of pancreas from either normal or STZ rats were first incubated for 60 min at 37°C in the presence of 8.3 mM D-glucose, then submitted to 3 washes at 4°C in the presence of the hexose (8.3 mM) and cytochalasin B (20.0 µM), further incubated for 60 min at 37°C, still in the presence of D-glucose and the mould metabolite, and eventually submitted to 4 washes at 4°C prior to measurement of their radioactive content.

[1] = one day after intraperitoneal injection
Method: Female Wistar rats (220-230 g body wt.) were injected intravenously with streptozotocin (0.25 µmol/g body wt.) on day zero. Eight to nine days later, they were transplanted with 1,500-6,000 islets prepared by the collagenase procedure (2) from rats of the same sex and strain (Iffa Credo, L'Arbresle, France). The islets were placed (1,500 islets per module) in 1-4 implantation modules (Statice Santé, Besançon, France), which were inserted, under pentobarbital anaesthesia (0.5-0.6 µmol/g body wt.; Nembutal, Sanofi, Brussels, Belgium), into the peritoneal cavity. The modules were equipped with a 20 µm thick polycarbonate membrane (Whatman, Maidstone, Kent, UK) with 6 x 10^8 pores (diameter : 50 nm) per cm^2. The glycemia of the rats was monitored in blood samples collected from the severed end of the tail.
D-[^3H]mannoheptulose (100 µCi in 0.3 ml saline containing 0.1 mM unlabelled D-mannoheptulose) was injected intraperitoneally and the animals killed by decapitation 24 hours later after a last blood sampling from the severed end of the tail had been obtained for measurement of glycemia. The blood collected after decapitation in heparinized vials was used for measurements of radioactivity in aliquots of blood, plasma and erythrocytes, as well as for determination of plasma D-glucose and insulin concentration. Samples of the liver, gastrocnemius muscle and kidney, as well as the whole pancreas, were homogenised in 1.5 ml H2O, aliquot parts of the homogenates being used for DNA and radioactive measurements. The fluid present in the implantation device was aspirated and also examined for its radioactive content. Thereafter, the implantation device was repeatedly frozen and thawn in 0.4 ml H2O, aliquot parts of this extract being then again used for both DNA and radioactive determinations.
The methods used to measure DNA content (3), glycemia (Glycotronic C; Macherey-Nagel, Düren, Germany), plasma D-glucose (4) and insulin (5) concentrations were previously described in the cited references.

[2] = Method: Two preparations of D-[^3H]mannoheptulose were used. The first preparation, used in a few in vitro experiments and in one set of in vivo experiments (animals injected 30 to 60 min before sacrifice), was a product from Nycomed Amersham (Little Chalfont, Buckinghamshire, UK). […] The second preparation used in all other experiments was a product from NEN Life Science Products (Zaventem, Belgium). […] In all experiments conducted in vivo, the animals were injected intravenously with D-[^3H]mannoheptulose (10-40 µCi, and 200 µCi in the case of the rats killed 48 hours after this injection) placed in 300 µl of saline. Except in the animals killed 30-60 min after D-[^3H]mannoheptulose injection, the inoculate also contained 0.1 mM unlabelled D-mannoheptulose.
In the in vivo experiments, the STZ rats were either not treated with insulin (animals killed 30-60 min after D-[^3H]mannoheptulose injection) or received twice daily 6 U of insulin (Insulatard, Novo Nordisk, Bagsvaerd, Denmark) subcutaneously, the last of these injections being given at about 5 p.m. on the day before either the injection of D-[^3H]mannoheptulose (animals killed 15 min after D-[^3H]mannoheptulose administration) or the sacrifice of the rats (rats examined 48 hours after D-[^3H]mannoheptulose injection). The animals killed 15 min after the injection of D-[^3H]mannoheptulose received a total of either 5 insulin injections, the first being made at about 5 p.m. on the day after streptozotocin administration, or 6 insulin injections given between the third and fifth day after streptozotocin administration. In the rats killed 48 hours after the injection of D-[^3H]mannoheptulose, the insulin treatment was initiated at 9 a.m. 3 days after streptozotocin administration and continued for a total of 5 days.
At stated times after D-[^3H]mannoheptulose intravenous injection, the rats were killed by decapitation, blood was collected in heparinized vials and the plasma separated for measurement of its radioactive content, as well as D-glucose^13 and insulin^14 concentrations. Samples of gastrocnemius muscle, liver, kidney and pancreas were weighed, homogenised in 1.5-3.0 ml of water, and aliquot parts of these homogenates examined for their radioactive content by liquid scintillation.
All radioactive data were calculated as dpm/µl of plasma or dpm/mg wet wt. (muscle, liver, kidney, pancreas). In these four tissues, the results were eventually expressed as µl/mg wet wt., by dividing the radioactive content (dpm/mg) by the paired plasma value (dpm/µl).

[3] = test system: rat pancreatic islets or dispersed islet cells; conditions: 60 min incubation at 37°C
Remark: listed apart in the source
[4] = test system: tumoral islet cells of the INS-1 line
[5] = test system: isolated pancreatic islets
Method: as §1
In a further series of experiments, groups of 20 islets each were submitted, after incubation, to 6 successive washes at 4°C in the presence of cytochalasin B (20.0 µM).
In the last set of experiments in this series, groups of 20 islets each were incubated for 60 min at 37°C in the presence of D-[^3H]mannoheptulose (0.1 mM), washed thrice at 4°C, further incubated for 60 min at 37°C in the absence of the heptose but presence of cytochalasin B (20.0 µM), again submitted to 4 successive washes, and eventually examined for their radioactive content.

[6] = test system: tumoral islet cells of the RINm5F line
[7] = up to the 60th min after injection

With `[3H]O[3H]` [^3HOH, reference compound] as the molecule, how does the “apparent distribution space after two successive incubations relative to that after first incubation and immediate washes” value (pieces of pancreas; normal or STZ rats pooled (n = 16), second 60 min incubation with D-glucose and cytochalasin B) read?
Its value is “no more than 1.8 ± 0.4%”.

Which results are given for `[3H][C@@](O)([C@H](O)CO)[C@H](O)[C@H](O)C(=O)CO` [D-[^3H]mannoheptulose]?
calculated radioactive content of the transplanted islets (dpm/mg wet wt.) relative to paired plasma radioactive content (dpm/µl) [1]: 6.49 ± 1.27; paired islet/pancreas ratio [1]: 11.59 ± 0.03; radioactive content calculated for the transplanted islets [1]: 332.7 ± 30.7 dpm/mg wet weight; radioactive content of the kidney [1]: 51.0 ± 0.9 dpm/mg wet weight; radioactive content of the liver [1]: 64.5 ± 6.4 dpm/mg wet weight; radioactive content of the muscle [1]: 28.9 ± 7.8 dpm/mg wet weight; radioactive content of the pancreas [1]: 28.7 ± 2.6 dpm/mg wet weight; volume of distribution, as judged from the plasma radioactive content ([1]; STZ diabetic rats with transplanted islets): 10.0 ± 2.2 ml/g body weight; apparent distribution space in STZ rats relative to control value (pieces of pancreas; 0.1 mM, 10 to 60 min at 37°C, 8.3 mM D-glucose, overall mean): 89.2 ± 3.6%; apparent distribution space in the presence of cytochalasin B relative to reference value (no cytochalasin B) (pieces of pancreas; 0.1 mM, 60 min, 8.3 mM D-glucose, cytochalasin B 20.0 µM, pooled control and STZ rats): 101.1 ± 4.1%; apparent distribution space after two successive incubations relative to that after first incubation and immediate washes (pieces of pancreas; 0.1 mM, STZ rats): 9.4 ± 0.4%; apparent distribution space after two successive incubations relative to that after first incubation and immediate washes (pieces of pancreas; 0.1 mM, control rats): 14.4 ± 0.4%; ratio between the mean values of apparent distribution space after 60/10 min incubation (pieces of pancreas; 0.1 mM, normal rats, 37°C, 8.3 mM D-glucose): 1.36 ± 0.16; final distribution space when the first incubation was conducted at 4°C relative to 37°C (pieces of pancreas; STZ rats): 38.0 ± 3.9%; apparent distribution space in the presence of D-glucose relative to its absence (pieces of pancreas; STZ rats, 0.1 mM, 60 min): 83.7 ± 4.5%; final distribution space relative to the initial incubation medium radioactive content (pieces of pancreas; STZ rats): 1.34 ± 0.11%; final distribution space relative to the initial incubation medium radioactive content (pieces of pancreas; control animals): 1.78 ± 0.10%; final distribution space when the first incubation was conducted at 4°C relative to 37°C (pieces of pancreas; control rats): 36.9 ± 4.2%; apparent distribution space in the presence of D-glucose relative to its absence (pieces of pancreas; control rats, 0.1 mM, 60 min): 106.7 ± 6.5%; radioactive content of the pancreatic gland relative to paired plasma value, STZ rats as % of mean control value ([2]; 15-2880 min after intravenous injection, all available data pooled): 81.6 ± 4.2%; liver/plasma radioactive ratio, STZ rats as % of normal rats ([2]; STZ animals not treated with insulin, tracer amount only, no unlabelled heptose): 56.1 ± 3.3%; paired ratio liver/plasma radioactivity, STZ rats as % of control rats ([2]; insulin-treated STZ rats (n = 11)): 109.5 ± 8.3%; kidney radioactive content relative to paired plasma value, STZ rats as % of normal rats ([2]; rat, in vivo): 68.1 ± 6.5%; paired ratio muscle/plasma radioactivity, STZ rats as % of control rats ([2]; rat, in vivo): 87.7 ± 6.2%; radioactive content of the pancreatic gland relative to paired plasma value, STZ rats as % of mean control value ([2]; results at 15 min not taken into account): 77.9 ± 5.6%; muscle/liver ratio [2, 7]: ≤ 17.00 ± 1.17%; paired pancreas/muscle ratio [2, 7]: 125.71 ± 7.83%; pancreas/liver ratio [2, 7]: 21.26 ± 1.07%; apparent intracellular distribution space relative to the intracellular 3HOH space [3]: ~50%; radioactive content of the transplanted islets relative to that found in the pancreas (60 min after the intravenous injection): about 10 times; radioactive content in the liver and transplanted islets relative to the pancreatic gland (one hour after intravenous injection): 5-8 times; apparent distribution space relative to the intracellular 3HOH space [4]: ~9%; apparent distribution space ([5]; 0.1 mM, 10-120 min incubation at 37°C, only 3 washes at 4°C with cytochalasin B 20.0 µM): ≥ 5.5 nl/islet; apparent distribution space in the presence of D-glucose relative to reference value (no D-glucose) ([5]; 0.1 mM, 30 or 120 min at 37°C, D-glucose 8.3 mM, 3 washes): 161.4 ± 23.7%; increase of apparent distribution space between the 15th and 120th min of incubation ([5]; 0.1 mM, 37°C, 8.3 mM D-glucose, 6 washes): 73.5 ± 30.3%; apparent distribution space relative to that of D-[5-3H]glucose (8.3 mM) ([5]; 0.1 mM, 30 min at 37°C, absence of D-glucose, 6 washes): 77.3 ± 9.4%; final radioactive content of islets first incubated with 8.3 mM D-glucose relative to absence of the hexose ([5]; 0.1 mM, 60 min 37°C, washes, further 60 min with cytochalasin B 20.0 µM): 168.5 ± 19.1%; final radioactive content with cytochalasin B in the first incubation medium containing 8.3 mM D-glucose, relative to reference value ([5]; 0.1 mM, cytochalasin B 20.0 µM, 60 min 37°C then second 60 min incubation): 103.7 ± 14.7%; apparent distribution space relative to the intracellular 3HOH space [6]: about 3%

Which “apparent distribution space after incubation at 4°C relative to 37°C” value ([5]; 8.3 mM, 30 min, 6 washes) does the source give for `[3H][C@@](O)(CO)[C@@H](O)[C@H](O)[C@@H](O)C=O` [D-[5-^3H]glucose, reference compound] here?
The value was 55.5 ± 8.3%.
